One data set deals with HEK 293-pcDNA-3.1. Put plainly: MTT cytotoxicity assay (Example 4). It is filed as cell-based. Here is the method:
(§1) The MRP7 cDNA was generously provided by Dr. Gary Kruh (University of Illinois, Chicago, Ill.) and inserted into the pcDNA3.1 expression vector. […] Individual colonies were selected in medium containing G418 (1 mg/ml) and cultured for further analysis.
(§2) MTT colorimetric assay was performed to analyze the drug sensitivity as previously described (Shi et al. (2007) Cancer Res. 67:11012-20). HEK293-pcDNA3.1 and HEK/MRP7 cells were seeded into 96-well plates in triplicate at 6000 cells/well.
(§3) After drug incubation of 68 h, 20 μl MTT solution (4 mg/ml) was added into each well. […] The Bliss method was used to calculate the IC50 values according to survival curves.

The next data set relates to HEK/MRP7. Put plainly: MTT cytotoxicity assay (Example 4). It is filed as cell-based. The note with it: alone. Here is the method:
as §1, §2, §3

Data set [1] in a line: MTT cytotoxicity assay (Example 4). The note with it: human, HEK/MRP7, alone. It counts as cell-based. As for the experimental part: as §1, §2, §3
The next data set has as its target ABCG2 (Homo sapiens, UniProt Q9UNQ0). Put plainly: Photoaffinity labeling with [^125I]-IAAP (Example 2). It is filed as binding. More on the design: endogenous in cells; host or cells: MCF7/FLV1000 (MCF-7/Flv1000) crude membranes. As to conditions: 10 μM. Here is the method:
The photoaffinity labeling of ABCB1 and ABCG2 with [^125I]-IAAP was conducted as described in Sauna et al., supra. The crude membranes from HIGH FIVE™ insect cells expressing ABCB1 and MCF7/FLV1000 cells expressing R482 ABCG2 (50 μg of protein) were incubated at room temperature with different concentrations of drugs in 50 mM Tris-HCl (pH 7.5) with [^125I]-IAAP (5-7 nM) for 5 min under subdued light. […] ABCB1 and ABCG2 were immunoprecipitated using BXP-21 antibodies as described in Shukla et al., supra. Both ABCB1 and ABCG2 samples were subjected to SDS-PAGE in a 7% Trisacetate NuPAGE gel, the gel was dried, and exposed to Bio-Max MR film (Eastman Kodak Co.) at −70° C. for 8 to 12 h. The radioactivity incorporated into the ABCB1 or ABCG2 band was quantified using the STORM 860 Phosphorlmager System and ImageQuaNT (Molecular Dynamics).

For the next data set, the system named is ABCG2-482-R2 (ABCG2). Put plainly: MTT cytotoxicity/reversal assay (Example 1). The note with it: +10 μM reversal agent. As for the experimental part:
(§4) The KB-C2 and KB-3-1 were kindly provided by Dr. Akiyama (Kagoshima University, Japan). HEK293-pcDNA3.1 and wild-type HEK/ABCG2 transfected cells were established by selection with G418 after transfecting HEK293 with either (1) empty pcDNA3.1 vector or (2) pcDNA3.1 vector containing full length of ABCG2 coding arginine (R) at amino acid position 482, and were then cultured in a medium with 2 mg/ml of G418 (ABCG2-482-R2 cells). Similarly, the HEK/MRP1 (ABCC1) and HEK/ABCB1 cells were generated by transfecting the HEK293 cells with either the MRP1 expression vector or the ABCB1 expression vector. All of the cell lines were grown in Dulbecco's modified Eagle's medium (DMEM) supplemented with 10% bovine serum, 100 units/ml penicillin, and […] streptomycin in a humidified incubator containing 5% CO2 at 37° C.
(§5) The MTT assay was used to assess cytotoxicity. The cultured cells were harvested with trypsin and resuspended in a final concentration of 4×10^3 cells/well for KB-3-1; 7.5×10^3 cells/well for KB-C2; and 8×10^3 for all of the other cell lines used in this study. Cells were seeded evenly in 96-well multiplates. […] After 68 h of incubation, 20 μl of the MTT solution (4 mg/ml) was added to each well, and the plate was further incubated for 4 h at 37° C., allowing viable cells to convert the yellow-colored MTT into dark-blue formazan crystals. Subsequently, the medium was discarded, and 100 μl of DMSO was added into each well to dissolve the formazan crystals, generating purple color. The absorbance was determined at 570 nm by an OPSYS Microplate Reader from DYNEX Technologies, Inc. (Chantilly, Va.). […] The degree of the reversal of multidrug resistance (MDR) was calculated by dividing the IC50 of an anticancer drug, e.g., an antineoplastic or chemotherapeutic drug (agent, compound), in a cell type in the absence of a reversal agent by the IC50 of the anticancer drug in the same cell type in the presence of the reversal agent. The IC50 values were calculated from survival curves using the Bliss method.

A further data set relates to HEK293/pcDNA3.1. Put plainly: MTT cytotoxicity/reversal assay (Example 1). It is filed as cell-based. The note with it: HEK293/pcDNA3.1; +10 μM reversal agent. As for the experimental part: as §4, §5
Data set [2] can be described thus: In vitro transport assay, membrane vesicles. It is filed as biochemical. As to conditions: HEK293/pcDNA3.1 vesicles. Here is the method: Transport assays were carried out using the rapid filtration method as described in Chen et al. (2003) Cancer Res. 63:4048-54. […] Reactions were stopped by the addition of 3 mL of ice-cold stop solution (0.25 M sucrose, 100 mM NaCl, and 10 mM Tris-HCl, pH 7.4). During the rapid filtration step, samples were passed through 0.22 μm GVWP filters (Millipore) presoaked in the stop solution. The filters were washed three times with 3 mL of ice-cold stop solution. Radioactivity was measured by liquid scintillation counting.

Another data set relates to parental cells. Put plainly: [^3H]-mitoxantrone accumulation. It is filed as cell-based. Here is the method: (§6) After washing 3 times with ice-cold PBS, the cells were trypsinized and lysed in 10 mM lysis buffer (pH 7.4, containing 1% Triton X-100 and 0.2% SDS). Each sample was placed in scintillation fluid and radioactivity was measured in a Packard TRI-CARB 1900CA liquid scintillation analyzer from Packard Instrument Company, Inc.

For a further data set, the system named is KB-3-1 cells. Put plainly: [^3H]-paclitaxel accumulation (Example 2). It counts as cell-based, human. The note with it: parental KB-3-1. As for the experimental part:
as §6

The next data set concerns KB-V1. Put plainly: MTT cytotoxicity/reversal assay (Example 2). It counts as cell-based, human. As to conditions: alone. Here is the method:
(§7) The ABCB1-overexpressing drug resistant cell line KB-V1 (generously provided by Dr. Gottesman, NCI, NIH) was established by a stepwise concentration increase of vinblastine in the culture medium of KB-3-1 cells and subsequently culturing these cells in medium with 1 μg/mL of vinblastine. An ABCC1-overexpressing MDR cell line, KB-CV60, was also derived from KB-3-1 cells and was maintained in medium with 1 μg/mL of cepharanthine and 60 ng/mL of vincristine. Both KB-C2 and KB-CV60 cell lines were kindly provided by Dr. Akiyama (Kagoshima University, Japan). HEK293/pcDNA3.1, ABCG2-482-R5, ABCG2-482-G2, and ABCG2-482-T7 cells were established by selection with 2 mg/mL G418 after transfecting HEK293 with either (1) empty pcDNA3.1 vector or (2) pcDNA3.1 vector containing full length ABCG2 coding either (2a) wild-type arginine (R) or mutant (2b) glycine (G) or (2c) threonine (T) at amino acid position 482, respectively. The wild-type ABCG2-overexpressing drug-resistant cell line MCF-7/Flv1000 was cultured in the medium with 1 μM of flavopiridol. […] Another G482 mutant ABCG2-overexpressing drug resistant cell line, S1-M1-80, was maintained in the medium with 80 μM of mitoxantrone. […] All the cell lines were grown as adherent monolayers in flasks with DMEM (Dulbecco's modified Eagle's medium) culture medium (Hyclone Co.) containing 10% bovine serum at 37° C. in a humidified atmosphere of 5% CO2.
(§8) Cells in 96-well plates were preincubated with or without the reversal agents for 1 h and then different concentrations of chemotherapeutic drugs were added into designated wells. After 68 h of incubation, MTT solution (4 mg/mL) was added to each well, and the plate was further incubated for 4 h, allowing viable cells to change the yellow-colored MTT into dark-blue formazan crystals. Subsequently the medium was discarded, and […] of DMSO was added into each well to dissolve the formazan crystals. The absorbance was determined at 570 nm by an OPSYS MR Microplate Reader from DYNEX Technologies, Inc.

A further data set concerns KB-C2. Put plainly: MTT cytotoxicity/reversal assay (Example 2). As to conditions: alone. It is filed as cell-based, human. Here is the method: as §7, §8
The subject of another data set is KB-3-1. Put plainly: MTT cytotoxicity/reversal assay (Example 2). It is filed as cell-based, human. As to conditions: alone. Here is the method: as §7, §8

Where two headings read alike, the source gives them in different places. Marks after values point to notes of the source that are not given here.

Sequence of ABCG2 (Q9UNQ0 whole entry): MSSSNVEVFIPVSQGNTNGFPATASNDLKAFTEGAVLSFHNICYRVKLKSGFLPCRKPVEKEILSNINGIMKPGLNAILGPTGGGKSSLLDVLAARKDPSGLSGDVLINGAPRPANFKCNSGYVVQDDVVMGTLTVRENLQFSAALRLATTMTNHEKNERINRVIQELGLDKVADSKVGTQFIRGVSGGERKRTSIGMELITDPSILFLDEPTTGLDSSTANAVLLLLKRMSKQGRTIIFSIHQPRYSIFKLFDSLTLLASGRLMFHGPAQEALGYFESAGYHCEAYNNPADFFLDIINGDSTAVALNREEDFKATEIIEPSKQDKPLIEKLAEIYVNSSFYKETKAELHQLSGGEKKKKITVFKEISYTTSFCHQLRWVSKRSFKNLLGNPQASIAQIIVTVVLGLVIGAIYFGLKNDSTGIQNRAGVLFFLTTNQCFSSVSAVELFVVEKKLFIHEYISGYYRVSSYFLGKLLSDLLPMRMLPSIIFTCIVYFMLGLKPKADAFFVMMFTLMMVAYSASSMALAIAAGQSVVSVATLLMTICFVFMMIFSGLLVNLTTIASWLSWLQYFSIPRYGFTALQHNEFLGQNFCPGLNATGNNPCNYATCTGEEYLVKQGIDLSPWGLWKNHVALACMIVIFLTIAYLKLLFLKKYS

Take `CC(=O)O[C@@]12CO[C@@H]1C[C@H](O)[C@@]1(C)C(=O)[C@H](O)C3=C(C)[C@@H](OC(=O)[C@H](O)[C@@H](NC(=O)OC(C)(C)C)c4ccccc4)C[C@@](O)([C@@H](OC(=O)c4ccccc4)[C@H]21)C3(C)C` [Docetaxel, docetaxel]: the “fold-resistance, docetaxel” value with HEK 293-pcDNA-3.1 (HEK 293-pcDNA-3.1, alone) is reported as “(1.0)”; in the data set with HEK/MRP7 it was “(11.31)”. Besides, the IC50 in the data set with HEK 293-pcDNA-3.1 (read-out: IC50 of docetaxel) stood at 0.00573 ± 0.00065 µM. For the same molecule, in [1] (read-out: IC50 of docetaxel), the 50% inhibitory concentration (IC50) at 68 h was 0.0648 ± 0.00519 µM.
Turning to `COc1ccc2c3c([nH]c2c1)[C@H](C=C(C)C)N1C(=O)[C@@H]2CCCN2C(=O)[C@@H]1C3` [FTC, Fumitremorgin C], at ABCG2, the “inhibition of [^125I]-IAAP photolabeling” value is recorded as “about 40%”. The “fold reversal, SN-38” value in the data set on ABCG2-482-R2 (ABCG2) was “(3.84)”; in the data set with HEK293/pcDNA3.1 it was “(1.13)”. Moreover, in data set [2], the “uptake rates of methotrexate and E217βG” value is listed as “moderately decreased the uptake rates”. In addition, the “intracellular levels of [^3H]-mitoxantrone” value in the data set on parental cells was “Neither sildenafil nor FTC affected the intracellular levels”.
Regarding `COc1ccc(CCN(C)CCCC(C#N)(c2ccc(OC)c(OC)c2)C(C)C)cc1OC` (centres unmarked) [Verapamil, verapamil], the “intracellular levels of [^3H]-paclitaxel” value with KB-3-1 cells is “Neither sildenafil nor verapamil altered the intracellular levels”.
For the molecule `CC[C@]1(O)C[C@@H]2CN(CCc3c([nH]c4ccccc34)[C@@](C(=O)OC)(c3cc4c(cc3OC)N(C)[C@H]3[C@@](O)(C(=O)OC)[C@H](OC(C)=O)[C@]5(CC)C=CCN6CC[C@]43[C@@H]65)C2)C1` [Vinblastine, vinblastine], the “fold-resistance, vinblastine” value is “(120.1)” with KB-V1; “(10.3)” with KB-C2; “(1.0)^c” with KB-3-1; “(1.0)” in the data set on HEK 293-pcDNA-3.1 (HEK 293-pcDNA-3.1, alone); “(5.03)” in the data set on HEK/MRP7. Further, in the data set on HEK 293-pcDNA-3.1 (read-out: IC50 of vinblastine), the IC50 stood at 0.0112 ± 0.00123 µM. For the same molecule, the IC50 at 68 h in data set [1] (read-out: IC50 of vinblastine) turned out to be 0.0563 ± 0.00461 µM.

The values are drawn from patent US8673914B2, “Use of phosphodiesterase inhibitors for treating multidrug resistance” (St. John's University, priority 2011, dated 2014).
